Measured values reported in US7960588B2, “Benzyl cycloalkyl sphingosine 1-phosphate receptor modulators” (University of Virginia Patent Foundation, priority 2007, dated 2011).

Tested on: blood lymphocytes
Experiment: Lymphopenia assay (circulating lymphocyte counts after oral gavage)
Assay type: in vivo
Details: mice; for lymphopenia (circulating lymphocyte counts): single dose 10 mg/kg in 2% hydroxypropyl beta-cyclodextrin, blood drawn after 18 hours
Description: The test compounds VPC122096 (benzylcyclopentyl), VPC122093 (benzylcyclohexyl) or VPC122097 (benzylcycloheptyl) compounds are dissolved in 2% hydroxypropyl beta-cyclodextrin and administered to mice by oral gavage at doses from 0.01 to 10 mg/kg body weight. After 24 hours (or other specified times), the mice are lightly anesthetized and ca. 0.1 ml of blood is drawn from the orbital sinus. The number of lymphocytes (in thousands per microliter of blood; normal is 4-11) is determined using a Hemavet blood analyzer. There were three mice per group, male, 10-11 weeks old, and the strain was mixed sv129×C57BL/6.
The test compounds VPC122096, VPC122097, or VPC122093 were dissolved in 2% aqueous hydroxypropyl beta-cyclodextrin and introduced into mice by oral gavage at 10 mg/kg (Three mice per group). Blood was drawn after 18 hours and examined. […] The results are illustrated in FIG. 3.
The test compound VPC122096, was dissolved in 2% aqueous hydroxypropyl beta-cyclodextrin (vehicle) and administered to mice orally (gavage) at doses of 0.01 mg/kg, 0.03 mg/kg, 0.1 mg/kg, 0.3 mg/kg, 1 mg/kg, and 3 mg/kg to provide a dose response curve (three-four mice per group, adult, C57Bl/6 strain). The blood samples were taken at 18 hours and 42 hours. Three mice per group, male, 10-11 week old sv129/C57Bl6 strain. The results are illustrated in FIG. 4. The ordinate represents lymphocytes in K/μl. The abscissa represents time in days after administration of a single dose. The ordinate represents lymphocytes in K/μl. The abscissa represents dose in milligram compound per kilogram body weight (mpk).
The duration of the effect of the test compounds was evaluated after administration of test compound VPC122096, dissolved in 2% aqueous hydroxypropyl beta-cyclodextrin (vehicle) and administered to mice orally (gavage). […] The blood samples were taken at 16 hours, 4 days, 12 days, and 19 days. FIG. 5 illustrates total blood lymphocyte count following the single dose of VPC122096 or vehicle.

Q: Which “lymphopenia (circulating lymphocyte counts)” value (oral gavage) does the source give for `CCCCCCCCc1ccc(CC2CCCC2(N)CO)cc1` (centres unmarked) [VPC122096, (1-amino-2-(4′-octylbenzyl)cyclopentyl)methanol] here?
A: evoked lymphopenia

Q: And the “lymphopenia, duration of the effect (total blood lymphocyte count)” value (oral gavage, single dose (1.0 mg/kg per FIG. 5), blood samples at 16 hours, 4 days, 12 days, 19 days)?
A: evoked a long lasting lymphopenia

Q: What about the duration of lymphopenia (single ED95 dose, oral) of the same molecule?
A: a week or more

Q: How did the “lymphopenia (circulating lymphocyte counts)” value (oral gavage) turn out when `CCCCCCCCc1ccc(CC2CCCC(CO)C2N)cc1` (centres unmarked) [VPC122093] was run?
A: evoked lymphopenia

Q: Which “lymphopenia (circulating lymphocyte counts)” value (oral gavage) does the source give for `CCCCCCCCc1ccc(CC2CCCCCC2(N)CO)cc1` (centres unmarked) [VPC122097] here?
A: evoked lymphopenia
